Assay results reported in patent US9598463B2, “Mucin hypersecretion inhibitors and methods of use” (BIOMARCK PHARMACEUTICALS, LTD., priority 2005, dated 2017).
Marks after values point to notes of the source that are not given here. Where a SMILES comes first, the peptide text is derived from it. The star is where a group is joined. Myristoyl = CCCCCCCCCCCCCC(=O)*

Legend:
[1] = Stability of test peptides in human plasma (LC/MS/MS, first order half-life); assay type: in vitro ADME
Experimental: (§1) Various test peptides in human plasma, human BALF, and CF patient mucus were analyzed to determine the susceptability of the test peptide to proteolysis in the biological fluids. […] The samples were analyzed either on the same day as received or stored at −20° C. and analyzed within the following two days.
Fresh human blood samples were collected in citrate buffered vacuutrainers (in absence of EDTA or heparin). Red blood cells (RBC) were removed by centrifugation of the blood at 4000×g for 10 min at 4° C. Plasma aliquots (0.9 mL) were then spiked with 0.1 mL of 0.5 mg/mL solution of the test peptide in 75 mM sodium acetate buffer at pH 7.0 and incubated in a water bath maintained at 37° C. Duplicate aliquots of 10 μL, were withdrawn at 5, 15, 30, 60, and 180 minutes intervals and immediately “quenched” with 990 μL of a solution consisting of 50% acetonitrile+50% water containing 0.2% formic acid. The samples were then subjected to liquid chromatography-mass spectrometry (LCMS) analysis.
(§2) All samples were analyzed using LC/MS/MS (MDS/SCIEX, API 4000 Model). Chromatography was performed using a Phenomenex Luna C18 column, while mass spectrometry was performed using positive ion electrospray ionization.
Calibration standards were analyzed by LCMS at concentrations of 0.100 μg/mL, 1.00 μg/mL, 10.0 μg/mL, and 100 μg/mL for each peptide, with the exception of the calibration standards for peptides myr-PEPTIDE 106, PEPTIDE 106, PEPTIDE 106-NH2, PEPTIDE 106, and cyclic peptide, cyc-PEPTIDE 106, in human mucus, which were analyzed at concentrations of 0.100 μg/mL, 1.00 μg/mL, 10.0 μg/mL, and 75 μg/mL. Standards were prepared in 1% human BALF, plasma, or mucus in 50/50 water/acetonitrile mixture containing 0.2% formic acid. The instrument response values for each set of standards were fit using a 1/(concentration)^2 linear least-squares line. Sample concentrations were calculated using the slope and intercept of this line. Concentrations outside of the calibration range were determined by extrapolating the calibration curve. […]
For the analysis of peptide concentration in plasma, duplicate calibration standards were analyzed at a concentration of 25 μg/mL and 50 μg/mL for each peptide. The instrument response values for each set of standards were fit through an intercept of 0 using an unweighted, linear least-squares line. Sample concentrations were calculated using the slope and intercept of this line. Concentrations outside of the calibration range were determined by extrapolating the calibration curve.
(§3) Watson fits the log transformed data with a least-squares line to determine parameters such as Cmax (maximum concentration), intercept, rate constant, slope, and T1/2 (half-life). The resulting kinetic parameters were based on the linear fit, not the actual concentration values.
(§4) Time-zero calibration standards in solution were not included as part of the kinetic profiles.

[2] = Stability of test peptides in human BALF (LC/MS/MS, first order half-life); assay type: in vitro ADME
Experimental: as §1
Samples of BALF collected from COPD patients were obtained and frozen. The BALF samples were thawed, mixed together and centrifuged at 10,000×g for 10 min at 4-8° C. The supernatant (0.9 mL) was spiked with 0.1 mL of 0.5 mg/mL solution of the peptide in 75 mM sodium acetate buffer at pH 7.0 and processed and analyzed as described above.
as §2
(§5) Calibration standards were analyzed by LCMS at concentrations of 0.100 μg/mL, 1.00 μg/mL, 10.0 μg/mL, and 100 μg/mL for each peptide, with the exception of the calibration standards for peptides myr-PEPTIDE 106, PEPTIDE 106, PEPTIDE 106-NH2, PEPTIDE 106, and cyclic peptide, cyc-PEPTIDE 106, in human mucus, which were analyzed at concentrations of 0.100 μg/mL, 1.00 μg/mL, 10.0 μg/mL, and 75 μg/mL. Standards were prepared in 1% human BALF, plasma, or mucus in 50/50 water/acetonitrile mixture containing 0.2% formic acid. The instrument response values for each set of standards were fit using a 1/(concentration)^2 linear least-squares line. Sample concentrations were calculated using the slope and intercept of this line. Concentrations outside of the calibration range were determined by extrapolating the calibration curve.
Duplicate calibration standards were analyzed at a concentration of 50 μg/mL for each peptide. The instrument response values for each set of standards were fit through an intercept of 0 using an unweighted, linear least-squares line. Sample concentrations were calculated using the slope and intercept of this line.
For the analysis of peptide concentration in BALF samples, one 50 μg/mL calibration standard prepared in a mixture of BALF, water, acetonitrile, and formic acid was analyzed with each sample set.
as §3, §4

[3] = test system: methacholine-induced mucin hypersecretion; experiment: Methacholine-induced mucin hypersecretion in ovalbumin-sensitized mouse model of asthma, BAL mucin ELISA (Balb/C mice); assay type: in vivo; settings: for Mucin Secretion % control: Table II, peptides at 100 μM, 50 μL intratracheal 15 min before methacholine; for Mucin Secretion % of control: Table IV
Excerpt: Experiments were designed to test whether or not the MANS peptide and other test peptides related thereto inhibit hypersecretion of mucin in murine airway in vivo. The ovalbumin-sensitized mouse model of allergic inflammation and asthma used in these studies was as described by Singer et al. (2004), supra. As a negative control, a control peptide containing an N-terminal myristoyl group and the same amino acids as MANS peptide but arranged in random order (i.e., the random N-terminal sequence, RNS, myristoyl-peptide 232) was tested alongside the proposed active peptides. BP2 mice, aged 6-8 wks, were immunized subcutaneously twice at weekly intervals with 1 μg of ovalbumin. After 14 days of sensitization, the animals were exposed to aerosolized ovalbumin, which causes a pronounced goblet cell hyperplasia after 72 hours. At the 72 hr time point, the secretagogue, methacholine ([…]) was delivered using a Buxco system nebulizer providing a fine aerosol for 90 seconds. Fifteen min prior to the secretagogue challenge, 50 μL of the test peptide, at 3 different concentrations (10 μM, 100 μM, or 140 μM), was administered by intratracheal route. The RNS peptide was tested at the highest dose level only (50 μL of 140 μM solution). […] Each experiment was carried out in 6 mice per point, and each set of experiments was repeated 3 times. To test strain-to-strain variations, the above experiment was repeated in Balb/C mice under similar protocol. Both stimulated and unstimulated mucin secretion, in mice treated with […] sodium acetate (data not shown), were identical to saline control. Following the methacholine challenge, the animals were sacrificed and bronchoalveolar lavage (BAL) performed on 6 animals per group for analysis of secreted mucin.
Mice were sacrificed by cervical dislocation, followed by rapid exposure of the trachea and insertion of a cannula through a small incision. Bronchoalveolar lavage (BAL) fluid was collected with 0.5 ml followed by 3×1 ml PBS containing PMSF (5 mM), EDTA (5 mM), and DTT (5 mM). BAL fluid was separated into cell-free and cell fractions via brief centrifugation prior to any analyses being performed. The cell-free supernatants were analyzed for the presence of mucin via an ELISA method using anti-mucin antibodies shown to react with mouse mucin. Specifically, a mouse anti-MUC5AC antibody that recognizes the carbohydrate portion of secreted mucin was used in these assays. Data generated from each BAL sample were normalized to total protein as determined by Bradford assay. Mucin content was expressed as the value obtained with the anti-mucin antibody minus that obtained with the non-immune control antibody. All ELISA data were statistically examined using a one-way ANOVA.

[4] = Qualitative solubility of test peptides in 0.5 N saline; assay type: physicochemical; settings: pH 6.5, 20° C. (table title)
Experimental: Various test peptides (1 to 5 mg each) were weighed out accurately in individual 2 mL screw cap glass vials and aliquots of 25 μL of 0.5 N saline, pH 6.5, were added at 25° C. and ambient pressure. The solubility was evaluated visually. If the test peptide dissolves completely with the first aliquot of saline, its solubility was calculated and designated as more than the calculated amount. […] Similarly, if 1.7 mg of a test peptide fails to dissolve in 1.7 mL of 0.5 N saline, its solubility is stated as <1.0 mg/mL.

[5] = Stability of test peptides in human CF mucus (LC/MS/MS, first order half-life); assay type: in vitro ADME
Experimental: as §1
The frozen mucus (sputum) from a CF patient was thawed and mixed with 2 volumes of 75 mM sodium acetate buffer, pH 7 with the help of a glass tissue grinder, centrifuged at 10,000×g for 10 min at 4-8° C. The pellet was re-suspended in 1 volume of the acetate buffer and centrifuged. The two supernatants were combined and used as follows. The supernatant (450 μL) was spiked with 50 μL, of 0.5 mg/mL solution of the peptide in 75 mM sodium acetate buffer at pH 7.0 and processed and analyzed as described above.
as §2, §5, §3, §4

[6] = test system: HBE1 cells; experiment: PMA-induced mucin hypersecretion in human bronchial epithelial cells (air/liquid interface, MUC5A ELISA); assay type: cell-based; settings: 0.5 μM PMA, 30 min
Experimental: HBE1 is a papilloma virus-transformed human bronchial epithelial cell line capable of mucin secretion when cultured in air/liquid interface. HBE1 cells were cultured in the air/liquid interface as described previously (Li et al, J. Biol. Chem., volume 276, pp 40982-40990, 2001). Briefly, HBE1 cells were cultured in air/liquid interface by seeding an appropriate number of cells in 12-well Transwell clear culture inserts (Costar, Cambridge, Mass.) that were thinly coated with rat tail collagen, type I (Collaborative Biomedical, Bedford, Mass.). Cells were initially cultured submerged in medium in a humidified 95% air, 5% CO2 environment for 5-7 days until nearly confluent. At that time, the air/liquid interface was created by removing the apical medium and feeding cells basalaterally. Medium was renewed daily thereafter. Cells were cultured for an additional 14 days to allow full differentiation. The accumulated mucin at the apical surface of the cells was removed by washing with phosphate-buffered saline, pH 7.2. To collect the baseline mucin secretion, cells were incubated for 30 min with medium alone and secreted mucin in the apical medium was collected, and quantitated by ELISA. To determine the mucin hypersecretion induced by a mucin secretagogue, cells were exposed to medium containing 0.5 μM phorbol myristate acetate, (PMA) for 30 min. and mucin was collected and quantitated by ELISA. […] Six wells were used for each test peptides and for each control. Secreted mucin in the apical medium was collected and quantitated by sandwich ELISA method using alkaline phosphatase-conjugated mucin (MUC5A) specific antibody (Zymed Laboratories, San Francisco, Calif.).

[7] = human plasma, 37° C., 1st experiment, read-out: Plasma t1/2 (1st exp.) (converted)
[8] = human plasma, 37° C., 2nd experiment, read-out: Plasma t1/2 (2nd exp.) (converted)
[9] = human BALF from COPD patients, 1st experiment, read-out: BALF t1/2 (1st exp.) (converted)

Molecule | Mucin Secretion % control [3] | solubility [4] | half-life [1, 7] | half-life [1, 8] | half-life [2, 9] | also measured
CCCCCCCCCCCCCC(=O)NCC(=O)N[C@@H](C)C(=O)N[C@@H](CCC(N)=O)C(=O)N[C@@H](Cc1ccccc1)C(=O)N[C@@H](CO)C(=O)N[C@@H](CCCCN)C(=O)N[C@H](C(=O)N[C@@H](C)C(=O)N[C@@H](C)C(=O)N[C@@H](CCCCN)C(=O)O)[C@@H](C)O [myr-peptide 106] (Myristoyl-GAQFSKTAAK-OH) | 33.6 % control | > 10000 µg/mL | – | – | – | half-life ([1]; Plasma t1/2 (1st exp.)): 1.23 h; half-life ([1]; Plasma t1/2 (2nd exp.)): 0.9 h; half-life [2]: 1.03 h; Mucin Secretion % of control ([3]; peptide 10 μM): 74*+ % of control; Mucin Secretion % of control ([3]; peptide 100 μM): 24** % of control; half-life ([5]; cerebrospinal or other body fluid, pH 7, Mucus t1/2 (1st exp.)): 9.53 h; half-life ([5]; cerebrospinal or other body fluid, pH 7, Mucus t1/2 (2nd exp.)): 3 h
H-GAQFSKTAAK-NH2 [peptide 106-NH2] | – | > 100000 µg/mL | 0.3 h | 0.13 h | 4 h | half-life ([5]; cerebrospinal or other body fluid, pH 7, human CF mucus, 1st experiment, read-out: Mucus t1/2 (1st exp.) (converted)): 0.08 h; half-life ([5]; cerebrospinal or other body fluid, pH 7, human CF mucus, 2nd experiment, read-out: Mucus t1/2 (2nd exp.) (converted)): 0.13 h
CCCCCCCCCCCCCC(=O)NCC(=O)N[C@@H](C)C(=O)N[C@@H](CCC(N)=O)C(=O)N[C@@H](Cc1ccccc1)C(=O)N[C@@H](CO)C(=O)N[C@@H](CCCCN)C(=O)N[C@H](C(=O)N[C@@H](CCCCN)C(=O)N[C@@H](C)C(=O)N[C@@H](CCCCN)C(=O)NCC(=O)N[C@@H](CCC(=O)O)C(N)=O)[C@@H](C)O [myr-peptide 234-NH2] (Myristoyl-GAQFSKTKAKGE-NH2) | 27.8 % control | < 2000 µg/mL | 3.82 h | – | 1.7 h | –
CCCCCCCCCCCCCC(=O)NCC(=O)N[C@@H](C)C(=O)N[C@@H](CCC(N)=O)C(=O)N[C@@H](C)C(=O)N[C@@H](CO)C(=O)N[C@@H](CCCCN)C(=O)N[C@H](C(=O)N[C@@H](C)C(=O)N[C@@H](C)C(=O)N[C@@H](CCCCN)C(=O)O)[C@@H](C)O [myr-peptide 236] (Myristoyl-GAQASKTAAK-OH) | – | < 10000 µg/mL | 0.72 h | – | – | half-life ([2]; cerebrospinal or other body fluid, human BALF from COPD patients, 1st experiment, read-out: BALF t1/2 (1st exp.) (converted)): 3.55 h; half-life ([2]; cerebrospinal or other body fluid, human BALF from COPD patients, 2nd experiment, read-out: BALF t1/2 (2nd exp.) (converted)): 2.94 h
CCCCCCCCCCCCCC(=O)O[C@@H]1[C@@H](C)[C@@]2(O)[C@@H](C=C(CO)C[C@]3(O)C(=O)C(C)=C[C@@H]23)[C@@H]2C(C)(C)[C@]12OC(C)=O [PMA, phorbol myristate acetate, reference compound] | – | – | – | – | – | Increase in mucin secretion [6]: 20%
C[C@@H]1NC(=O)CNC(=O)[C@H](CCCCN)NC(=O)[C@H](C)NC(=O)[C@H](C)NC(=O)[C@H]([C@@H](C)O)NC(=O)[C@H](CCCCN)NC(=O)[C@H](CO)NC(=O)[C@H](Cc2ccccc2)NC(=O)[C@H](CCC(N)=O)NC1=O [cyclic-peptide 106] (cyclo(GAQFSKTAAK)) | – | > 150000 µg/mL | – | 1.04 h | – | half-life ([5]; human CF mucus, 1st experiment, read-out: Mucus t1/2 (1st exp.) (converted)): 1.1 h; half-life ([5]; human CF mucus, 2nd experiment, read-out: Mucus t1/2 (2nd exp.) (converted)): 2 h
